In ChEMBL document CHEMBL1201862, “PubChem BioAssay data set” (2004):
One block for each compound: values may come before it. Calls of active or inactive are those of the source.

Experiments:
[1] = molecular target: T1, Probable nicotinate-nucleotide adenylyltransferase (Staphylococcus aureus (strain N315), UniProt P65502); format: functional, Staphylococcus aureus subsp. aureus N315; conditions: read-out: IC50_Mean;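 as to IC50 Mean: confirmatory dose-response retesting of NadD inhibitor hits first found in an ultra-high-throughput screen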
[2] = molecular target: T1, Probable nicotinate-nucleotide adenylyltransferase; format: functional, Staphylococcus aureus subsp. aureus N315
[3] = molecular target: ADP-ribosylation factor GTPase-activating protein 1 (Rattus norvegicus, UniProt Q62848); test: Fluorescence polarization-based biochemical high throughput dose response screening assay to identify inhibitors of ADP-ribosylation factor GTPase activating protein 1 (ARFGAP1).; format: functional
ADP-ribosylation factor GTPase-activating protein 1, sequence (Q62848 whole entry): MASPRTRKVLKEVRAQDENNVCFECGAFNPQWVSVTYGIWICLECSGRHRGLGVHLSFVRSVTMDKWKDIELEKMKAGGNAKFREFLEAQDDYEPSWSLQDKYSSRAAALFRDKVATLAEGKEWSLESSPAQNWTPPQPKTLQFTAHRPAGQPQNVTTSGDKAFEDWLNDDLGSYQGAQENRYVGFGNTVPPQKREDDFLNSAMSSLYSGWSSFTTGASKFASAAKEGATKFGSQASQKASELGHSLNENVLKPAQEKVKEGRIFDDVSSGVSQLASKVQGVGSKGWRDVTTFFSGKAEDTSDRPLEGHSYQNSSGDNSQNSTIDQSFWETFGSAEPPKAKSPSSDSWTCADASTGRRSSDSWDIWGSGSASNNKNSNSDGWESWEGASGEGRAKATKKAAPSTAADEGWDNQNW

[4] = mouse fibroblast viability loss – cell-based, cherry-pick samples, set 2, cytotoxicity control for T. cruzi growth inhibitor project, dose response (AID 651817); format: functional; conditions: NIH3T3
[5] = Potency on glucagon-like peptide 1 release, dose-response in NCI-H716 cell line, half maximal inhibitory concentration (AID 1117344); format: functional, cell-based
[6] = molecular target: T2, Small ubiquitin-related modifier 2 (Homo sapiens, UniProt P61956); test: SUMO2 binding disruption by SUMO1 hits – biochemical, FRET, human SUMO2, uHTS hits, selectivity assay for SUMO1 interaction inhibitor project, dose response (AID 624384); format: functional; conditions: read-out: IC50_Mean
T2 sequence (P61956 whole entry): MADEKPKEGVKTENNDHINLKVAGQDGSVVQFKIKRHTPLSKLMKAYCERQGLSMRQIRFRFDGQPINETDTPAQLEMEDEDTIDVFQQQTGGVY

[7] = molecular target: T3, Small ubiquitin-related modifier 1 (Homo sapiens, UniProt P63165); test: SUMO1 protein-protein binding blockers, potency – biochemical, FRET, dose response (AID 624383); format: functional; conditions: read-out: IC50_Mean
T3 sequence (P63165 whole entry): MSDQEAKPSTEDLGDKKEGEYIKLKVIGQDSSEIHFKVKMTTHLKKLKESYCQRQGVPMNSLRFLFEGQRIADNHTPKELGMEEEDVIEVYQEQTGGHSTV

[8] = molecular target: T2, Small ubiquitin-related modifier 2; test: disruption of SUMO2 interaction with SIM peptide – biochemical, fluorescence polarization, uHTS hits, selectivity assay for SUMO1 interaction inhibitor project, dose response (AID 624385); format: functional; conditions: read-out: IC50_Mean
[9] = molecular target: T3, Small ubiquitin-related modifier 1; test: SUMO1 protein interaction blockers, potency – biochemical, fluorescence polarization, uHTS hits, dose response (AID 624382); format: functional; conditions: read-out: IC50_Mean
[10] = glucagon-like peptide-1 release potency in STC-1, concentration-response, half-maximal inhibitory concentration in the STC-1 line (AID 1117345); format: functional, cell-based

- IC50 [1]: 32.9 µM (active)
- IC50 [2]: 13 µM (active)
SMILES: N#Cc1c(SCc2c(Cl)cccc2Cl)nc(N)[nH]c1=S

- IC50 [3]: 40.7 µM (inactive)
SMILES: CCC(=O)Nc1ccc(NC(=O)CSc2nnnn2-c2ccc3c(c2)OCCO3)cc1

SMILES: C[C@@H]1CN([C@H](C)CO)C(=O)c2cccc(NC(=O)c3ccncc3)c2O[C@H]1CN(C)Cc1ccc(-c2ccccc2)cc1
- AC50 [4]: 42 µM (inactive)

SMILES: [O-][S+](c1cc(Cl)cc(Cl)c1O)c1cc(Cl)cc(Cl)c1O [BITHIONOLOXIDE]
- IC50 [5]: 19.7 µM (inactive)
- IC50 [6]: 43.3 µM (inactive)
- IC50 [7]: 9.66 µM (active)
- IC50 [8]: 3.55 µM (active)
- IC50 [9]: 0.876 µM (active)
- IC50 [10]: > 40 µM (inactive)
